Measurements from US9040103B2, “Use of essential oil of oregano and of rosewood, or constituents thereof, in the therapeutic treatment of keratoses” (L'Oreal, priority 2010, dated 2015).

System: A431 cells
Test: Apoptosis, annexin V/propidium iodide (AV/PI) test
Format: cell-based, human
Settings: 12 h; for death by targeted apoptosis of mutated cancer cells: A431 vs HEK001, linalool 320 nL/mL, carvacrol 60 nL/mL, thymol 30 nL/mL; for cytotoxic efficacy compared with the complex essential oils: concentrations equal to those present in the essential oil treatments
Procedure: These three molecules were incubated for 12 h with non-mutated immortalized keratinocytes (HEK001) and mutated cancerous keratinocytes (A431). The percentage of cells in apoptosis was measured by the annexin V/propidium iodide test. The concentrations of the molecules used were equal to those present during the treatments with the essential oils. Example: the concentration of linalool used here represents the equivalent of 80% of linalool present in the essential oil of rosewood.
Annexin V/Propidium Iodide Test:
One of the markers for apoptosis is the translocation of phosphatidyl-serine from the internal face towards the external face of the plasma membrane (translocation, allowing apoptotic bodies to be recognized and phagocyted by the macrophages).
The AV/PI test can be used to detect this event because of the affinity of the protein annexin V for phosphatidyl-serine. Propidium iodide, which targets DNA, can be used to distinguish early apoptotic cells from cells in late apoptosis and/or in necrosis.
After the desired treatment time, the medium was eliminated, the cells were harvested (by trypsinization), centrifuged and rinsed in 4 mL of PBS 1×. Tagging was carried out following the instructions of the manufacturer (Kit Vybrant, Molecular Probe). The cells were rapidly taken up in 100 μl of tagging buffer, to which 6 μl of annexin V and 3 μg/mL of propidium iodide per sample was added. The cells were then incubated for 30 min in the dark (at ambient temperature). Four hundred μL of tagging buffer was added before measuring the fluorescence of the annexin V (at 530 nm) and of the propidium iodide (at 610 nm).

Compound	apoptotic A431 cells (60 nL/mL) [%]	death by targeted apoptosis of mutated cancer cells	cytotoxic efficacy compared with the complex essential oils	apoptotic A431 cells (30 nL/mL)
Cc1ccc(C(C)C)cc1O [carvacrol]	~25	qualitatively conserved	lower than with complex essential oils	
C=CC(C)(O)CCC=C(C)C (centres unmarked) [linalool]		qualitatively conserved	lower than with complex essential oils	
Cc1ccc(C(C)C)c(O)c1 [thymol]		qualitatively conserved	lower than with complex essential oils	approximately 15%
